Results taken from PMC8539010, “Utility of Bioluminescent Homogeneous Nucleotide Detection Assays in Measuring Activities of Nucleotide-Sugar Dependent Glycosyltransferases and Studying Their Inhibitors” (Molecules, 2021).

Key:
[1] = molecular target: T1, FUT7 (Fucosyltransferase 7) (Homo sapiens, UniProt Q11130); test: GDP-Glo bioluminescent enzyme assay, dose response with fetuin and GDP-fucose; assay type: biochemical
T1 sequence (Q11130 1-342): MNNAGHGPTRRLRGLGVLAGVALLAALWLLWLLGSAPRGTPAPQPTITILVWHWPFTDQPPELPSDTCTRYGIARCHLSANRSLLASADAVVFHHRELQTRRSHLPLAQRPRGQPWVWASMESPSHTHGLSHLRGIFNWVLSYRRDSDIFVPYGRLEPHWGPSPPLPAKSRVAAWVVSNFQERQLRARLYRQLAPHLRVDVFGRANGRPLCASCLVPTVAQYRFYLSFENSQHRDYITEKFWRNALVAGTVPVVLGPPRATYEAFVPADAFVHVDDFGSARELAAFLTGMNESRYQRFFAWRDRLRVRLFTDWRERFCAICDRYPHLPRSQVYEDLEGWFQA

[2] = molecular target: T2, OGT (O-GlcNAc Transferase) (Homo sapiens, UniProt O15294); test: UDP-Glo bioluminescent enzyme assay, dose response with OGT peptide and UDP-GlcNAc; assay type: biochemical
T2 sequence (O15294 2-236 isoform O15294-4): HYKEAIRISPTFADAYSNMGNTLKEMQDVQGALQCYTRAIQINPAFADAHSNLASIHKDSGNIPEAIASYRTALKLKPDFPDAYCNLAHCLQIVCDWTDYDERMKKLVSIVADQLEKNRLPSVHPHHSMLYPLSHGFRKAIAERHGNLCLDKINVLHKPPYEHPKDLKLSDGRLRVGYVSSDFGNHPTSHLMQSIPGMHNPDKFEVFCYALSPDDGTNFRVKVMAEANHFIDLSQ

Q: For `O=C(O)c1cc(O)c(O)c(O)c1` [Gallic acid], which IC50 [1] is on record?
A: Its IC50 is 0.6 µM.

Q: For `O=C(O)C1CC(=O)N(CCC23CC4CC(CC(C4)C2)C3)C(=Nc2ccc(Cl)cc2)S1` (stereo not drawn) [ST045849], which IC50 [2] is on record?
A: Its IC50 is 58 µM.

Q: `N#Cc1c(SCc2ccc(C(=O)O)cc2)nc2c(c1-c1cccs1)CCCC2` [ST078925] was tested. Which IC50 [2] did it give?
A: Its IC50 is 55 µM.
